Test results published in patent US7767659B2, “Synthesis of naturally occurring ecteinascidins and related compounds” (Pharma Mar, S.A., priority 2002, dated 2010).

Legend:
[1] = tested on: SK-BR-3; experiment: Inhibition of cells growth by colorimetric assay (SRB); settings: Homo sapiens, SK-BR-3, 48 h; for GI50: read-out: GI50 SK-BR3; for CC50: read-out: LC50 SK-BR3; for IC (TGI): read-out: TGI SK-BR3
Outline: (§1)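 Colorimetric SRB read (490 nm) on triplicate wells after 48 h at 37 °C, 5% CO2. Dose range 10 to 10^−8 μg/ml; 5×10^3 cells/well pre-attached 18 h.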

[2] = tested on: SK-MEL-28; experiment: as above; settings: Homo sapiens, SK-MEL-28, 48 h; for GI50: read-out: GI50 MEL-28; for CC50: read-out: LC50 MEL-28; for IC (TGI): read-out: TGI MEL-28
Outline: as §1

[3] = tested on: DU-145; experiment: as above; settings: Homo sapiens, DU-145, 48 h; for GI50: read-out: GI50 DU145; for CC50: read-out: LC50 DU145; for IC (TGI): read-out: TGI DU145
Outline: as §1

[4] = tested on: K-562; experiment: as above; settings: Homo sapiens, K562, 48 h; for GI50: read-out: GI50 K562; for CC50: read-out: LC50 K562; for IC (TGI): read-out: TGI K562
Outline: as §1

[5] = tested on: LNCaP; experiment: as above; settings: Homo sapiens, LNCaP, 48 h; for GI50: read-out: GI50 LNCAP; for CC50: read-out: LC50 LNCAP; for IC (TGI): read-out: TGI LNCAP
Outline: as §1

[6] = tested on: IGROV-ET; experiment: as above; settings: Homo sapiens, 48 h; for GI50: read-out: GI50 IGROV-ET; for CC50: read-out: LC50 IGROV-ET; for IC (TGI): read-out: TGI IGROV-ET
Outline: as §1

[7] = tested on: PANC-1; experiment: as above; settings: Homo sapiens, PANC-1, 48 h; for GI50: read-out: GI50 PANC-1; for CC50: read-out: LC50 PANC-1; for IC (TGI): read-out: TGI PANC-1
Outline: as §1

[8] = tested on: HeLa-APL; experiment: as above; settings: Homo sapiens, 48 h; for GI50: read-out: GI50 HELA-APL; for CC50: read-out: LC50 HELA-APL; for IC (TGI): read-out: TGI HELA-APL
Outline: as §1

[9] = tested on: LoVo-Dox; experiment: as above; settings: Homo sapiens, 48 h; for GI50: read-out: GI50 LOVO-DOX; for CC50: read-out: LC50 LOVO-DOX; for IC (TGI): read-out: TGI LOVO-DOX
Outline: as §1

[10] = tested on: IGROV-1; experiment: as above; settings: Homo sapiens, IGROV-1, 48 h; for GI50: read-out: GI50 IGROV; for CC50: read-out: LC50 IGROV; for IC (TGI): read-out: TGI IGROV
Outline: as §1

[11] = tested on: HeLa; experiment: as above; settings: Homo sapiens, HeLa, 48 h; for GI50: read-out: GI50 HELA; for CC50: read-out: LC50 HELA; for IC (TGI): read-out: TGI HELA
Outline: as §1

[12] = tested on: A-549; experiment: cells; settings: Homo sapiens, A549, 48 h; for GI50: read-out: GI50 A549; for CC50: read-out: LC50 A549; for IC (TGI): read-out: TGI A549
Outline: as §1

[13] = tested on: LoVo; experiment: cells; settings: Homo sapiens, LoVo, 48 h; for GI50: read-out: GI50 LOVO; for CC50: read-out: LC50 LOVO; for IC (TGI): read-out: TGI LOVO
Outline: as §1

[14] = tested on: HT-29; experiment: cells; settings: Homo sapiens, HT-29, 48 h; for GI50: read-out: GI50 HT29; for CC50: read-out: LC50 HT29; for IC (TGI): read-out: TGI HT29
Outline: as §1

Compound: COc1c(C)cc2c(c1O)[C@H]1N[C@@H](C2)[C@H](C#N)N2C1[C@@H]1SCC(NC(C)=O)C(=O)OC[C@H]2c2c3c(c(C)c(OC(C)=O)c21)OCO3 (stereo partly drawn) [compound 30]
- GI50 [1]: 0.527 nM
- CC50 [1]: 267 nM
- IC (TGI) [1]: 2.29 nM
- GI50 [2]: 1.09 nM
- CC50 [2]: 10.7 nM
- IC (TGI) [2]: 3.66 nM
- GI50 [3]: 2.63 nM
- CC50 [3]: 14.1 µM
- IC (TGI) [3]: 7.44 nM
- GI50 [4]: 0.312 nM
- CC50 [4]: 9.51 µM
- IC (TGI) [4]: 2.49 nM
- GI50 [5]: 96.8 nM
- CC50 [5]: 147 nM
- IC (TGI) [5]: 0.12 µM
- GI50 [6]: 25.4 nM
- CC50 [6]: 15.4 µM
- IC (TGI) [6]: 0.0824 µM
- GI50 [7]: 2.89 nM
- CC50 [7]: 15.4 µM
- IC (TGI) [7]: 0.0155 µM
- GI50 [8]: 1.86 nM
- CC50 [8]: 19.5 nM
- IC (TGI) [8]: 5.5 nM
- GI50 [9]: 207 nM
- CC50 [9]: 15.4 µM
- IC (TGI) [9]: 2.07 µM
- GI50 [10]: 0.695 nM
- CC50 [10]: 231 nM
- IC (TGI) [10]: 3.32 nM
- GI50 [11]: 1.15 nM
- CC50 [11]: 21.7 nM
- IC (TGI) [11]: 4.53 nM
- GI50 [12]: 3.47 nM
- CC50 [12]: 89 nM
- IC (TGI) [12]: 0.0105 µM
- GI50 [13]: 2 nM
- CC50 [13]: 15.4 µM
- IC (TGI) [13]: 8.07 nM
- GI50 [14]: 2.03 nM
- CC50 [14]: 15.4 µM
- IC (TGI) [14]: 0.0135 µM

Compound: COc1c(C)cc2c(c1O)[C@H]1N[C@@H](C2)[C@H](C#N)N2C1[C@@H]1SCC(NC(=O)C(F)(F)F)C(=O)OC[C@H]2c2c3c(c(C)c(OC(C)=O)c21)OCO3 (stereo partly drawn) [compound 31]
- GI50 [1]: 0.396 nM
- CC50 [1]: 60.7 nM
- IC (TGI) [1]: 1.22 nM
- GI50 [2]: 0.832 nM
- CC50 [2]: 8.06 nM
- IC (TGI) [2]: 2.54 nM
- GI50 [3]: 0.444 nM
- CC50 [3]: 2.23 µM
- IC (TGI) [3]: 0.951 nM
- GI50 [4]: 0.226 nM
- CC50 [4]: 0.126 µM
- IC (TGI) [4]: 0.792 nM
- GI50 [5]: 0.419 nM
- CC50 [5]: 90.7 nM
- IC (TGI) [5]: 0.0163 µM
- GI50 [6]: 2.91 nM
- CC50 [6]: 2.09 µM
- IC (TGI) [6]: 0.00749 µM
- GI50 [7]: 0.807 nM
- CC50 [7]: 1.77 µM
- IC (TGI) [7]: 0.00668 µM
- GI50 [8]: 0.576 nM
- CC50 [8]: 9.96 nM
- IC (TGI) [8]: 1.96 nM
- GI50 [9]: 9.05 nM
- CC50 [9]: 7.21 µM
- IC (TGI) [9]: 1.48 µM
- GI50 [10]: 0.413 nM
- CC50 [10]: 12.6 nM
- IC (TGI) [10]: 1.07 nM
- GI50 [11]: 0.678 nM
- CC50 [11]: 11.2 nM
- IC (TGI) [11]: 2.04 nM
- GI50 [12]: 1.83 nM
- CC50 [12]: 92.1 nM
- IC (TGI) [12]: 0.00597 µM
- GI50 [13]: 0.688 nM
- CC50 [13]: 1.82 µM
- IC (TGI) [13]: 3.49 nM
- GI50 [14]: 1.97 nM
- CC50 [14]: 3.68 µM
- IC (TGI) [14]: 0.0162 µM

Compound: CCCCCCCCCCCCCCCC(=O)NC1CS[C@@H]2c3c(OC(C)=O)c(C)c4c(c3[C@H](COC1=O)N1C2[C@@H]2N[C@@H](Cc3cc(C)c(OC)c(O)c32)[C@@H]1C#N)OCO4 (stereo partly drawn) [compound 32]
- GI50 [1]: 263 nM
- CC50 [1]: 7520 nM
- IC (TGI) [1]: 1660 nM
- GI50 [2]: 2410 nM
- CC50 [2]: 7130 nM
- IC (TGI) [2]: 4140 nM
- GI50 [3]: 2480 nM
- CC50 [3]: 9.39 µM
- IC (TGI) [3]: 4830 nM
- GI50 [4]: 694 nM
- CC50 [4]: 6.81 µM
- IC (TGI) [4]: 2200 nM
- GI50 [5]: 1770 nM
- CC50 [5]: 6410 nM
- IC (TGI) [5]: 3.36 µM
- GI50 [6]: 2850 nM
- CC50 [6]: 9.67 µM
- IC (TGI) [6]: 5.24 µM
- GI50 [7]: 2560 nM
- CC50 [7]: 8.79 µM
- IC (TGI) [7]: 4.75 µM
- GI50 [8]: 33.9 nM
- CC50 [8]: 108 nM
- IC (TGI) [8]: 60.5 nM
- GI50 [9]: 802 nM
- CC50 [9]: 6.76 µM
- IC (TGI) [9]: 2.48 µM
- GI50 [10]: 1970 nM
- CC50 [10]: 7740 nM
- IC (TGI) [10]: 3910 nM
- GI50 [11]: 253 nM
- CC50 [11]: 689 nM
- IC (TGI) [11]: 418 nM
- GI50 [12]: 2380 nM
- CC50 [12]: 7700 nM
- IC (TGI) [12]: 4.29 µM
- GI50 [13]: 1890 nM
- CC50 [13]: 7.39 µM
- IC (TGI) [13]: 3760 nM
- GI50 [14]: 3480 nM
- CC50 [14]: 10.7 µM
- IC (TGI) [14]: 6.1 µM
